Reference: ChEMBL document CHEMBL1240496, “Development of potent glucagon-like peptide-1 agonists with high enzyme stability via introduction of multiple lactam bridges” (J Med Chem, 2010)
Bridge positions count the residues as written; N and C are the ends. Peptide text beside a SMILES is read from it.

Assays:
[1] = system: NEP 24.11; assay: Chemical stability of the compound assessed as half life up to 24 hrs by HPLC analysis in presence of human recombinant NEP 24.11; format: physicochemical
[2] = biological target: T1, Glucagon-like peptide 1 receptor (Homo sapiens, UniProt P43220); assay: Activation of human GLP1 receptor expressed in HEK293 cells assessed as increase in cAMP accumulation; format: functional, cell-based
T1 sequence (P43220 whole entry): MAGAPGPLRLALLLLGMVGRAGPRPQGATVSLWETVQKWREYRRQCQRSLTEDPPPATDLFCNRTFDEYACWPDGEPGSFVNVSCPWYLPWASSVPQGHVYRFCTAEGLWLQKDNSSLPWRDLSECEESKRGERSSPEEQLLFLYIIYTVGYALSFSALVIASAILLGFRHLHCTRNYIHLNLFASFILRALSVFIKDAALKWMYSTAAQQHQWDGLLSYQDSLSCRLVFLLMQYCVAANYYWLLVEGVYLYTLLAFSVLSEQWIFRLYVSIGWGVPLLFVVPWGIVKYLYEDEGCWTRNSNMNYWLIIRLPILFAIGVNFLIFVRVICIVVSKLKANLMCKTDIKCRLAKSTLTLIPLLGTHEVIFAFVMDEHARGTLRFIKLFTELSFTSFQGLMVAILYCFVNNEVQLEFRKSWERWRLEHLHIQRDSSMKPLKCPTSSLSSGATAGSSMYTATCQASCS

[3] = system: DPP4; assay: Chemical stability of the compound assessed as half life up to 24 hrs by HPLC analysis in presence of human recombinant DPP4; format: physicochemical
[4] = biological target: T1, Glucagon-like peptide 1 receptor; assay: Activation of human GLP1 receptor expressed in HEK293 cells assessed as increase in cAMP accumulation relative to GLP1; format: functional, cell-based

Structure (SMILES)	half-life [1] [h]	EC50 ([2]; read-out: EC50) [nM]	EC50 ([2]; read-out: pEC50 (converted)) [nM]	half-life [3] [h]	Activity [4] [%]
CC[C@H](C)[C@H](NC(=O)[C@H](Cc1ccccc1)NC(=O)[C@H](CCC(=O)O)NC(=O)[C@@H]1CCCCNC(=O)CC[C@H](NC(=O)[C@H](CCC(=O)O)NC(=O)[C@H](CC(C)C)NC(=O)[C@H](Cc2ccc(O)cc2)NC(=O)[C@H](CO)NC(=O)[C@H](CO)NC(=O)[C@@H](NC(=O)[C@H](CC(=O)O)NC(=O)[C@H](CO)NC(=O)[C@@H](NC(=O)[C@H](Cc2ccccc2)NC(=O)[C@@H](NC(=O)CNC(=O)[C@H](CCC(=O)O)NC(=O)[C@H](C)NC(=O)[C@@H](N)Cc2cnc[nH]2)[C@@H](C)O)[C@@H](C)O)C(C)C)C(=O)N[C@@H](CCC(N)=O)C(=O)N[C@@H](C)C(=O)N[C@@H](C)C(=O)N1)C(=O)N[C@@H](C)C(=O)N[C@@H](Cc1c[nH]c2ccccc12)C(=O)N[C@@H](CC(C)C)C(=O)N[C@H](C(=O)N[C@@H](CCCCN)C(=O)NCC(=O)N[C@@H](CCCN=C(N)N)C(=O)O)C(C)C	6.9	2.8	5.01	2.9	
CC[C@H](C)[C@H](NC(=O)[C@H](Cc1ccccc1)NC(=O)[C@H](CCC(=O)O)NC(=O)[C@H](CCCCN)NC(=O)[C@H](C)NC(=O)[C@H](C)NC(=O)[C@H](CCC(N)=O)NC(=O)CNC(=O)[C@H](CCC(=O)O)NC(=O)[C@H](CC(C)C)NC(=O)[C@H](Cc1ccc(O)cc1)NC(=O)[C@H](CO)NC(=O)[C@H](CO)NC(=O)[C@@H](NC(=O)[C@H](CC(=O)O)NC(=O)[C@H](CO)NC(=O)[C@@H](NC(=O)[C@H](Cc1ccccc1)NC(=O)[C@@H](NC(=O)CNC(=O)[C@H](CCC(=O)O)NC(=O)[C@H](C)NC(=O)[C@@H](N)Cc1cnc[nH]1)[C@@H](C)O)[C@@H](C)O)C(C)C)C(=O)N[C@H]1CCC(=O)NCCCC[C@@H](C(=O)NCC(=O)N[C@@H](CCCNC(=N)N)C(N)=O)NC(=O)[C@H](C(C)C)NC(=O)[C@H](CC(C)C)NC(=O)[C@H](Cc2c[nH]c3ccccc23)NC1=O	6.9	5.3	2.51	3.3	90
CC[C@H](C)[C@H](NC(=O)[C@H](Cc1ccccc1)NC(=O)[C@H](CCC(=O)O)NC(=O)[C@H](CCCCN)NC(=O)[C@H](C)NC(=O)[C@H](C)NC(=O)[C@H](CCC(N)=O)NC(=O)[C@@H]1CCCCNC(=O)CC[C@H](NC(=O)[C@H](CO)NC(=O)[C@@H](NC(=O)[C@H](CC(=O)O)NC(=O)[C@H](CO)NC(=O)[C@@H](NC(=O)[C@H](Cc2ccccc2)NC(=O)[C@@H](NC(=O)CNC(=O)[C@H](CCC(=O)O)NC(=O)[C@H](C)NC(=O)[C@@H](N)Cc2cnc[nH]2)[C@@H](C)O)[C@@H](C)O)C(C)C)C(=O)N[C@@H](Cc2ccc(O)cc2)C(=O)N[C@@H](CC(C)C)C(=O)N[C@@H](CCC(=O)O)C(=O)N1)C(=O)N[C@H]1CCC(=O)NCCCC[C@@H](C(=O)NCC(=O)N[C@@H](CCCN=C(N)N)C(N)=O)NC(=O)[C@H](C(C)C)NC(=O)[C@H](CC(C)C)NC(=O)[C@H](Cc2c[nH]c3ccccc23)NC1=O	> 96	1.9		3.6	
CC[C@H](C)[C@H](NC(=O)[C@H](Cc1ccccc1)NC(=O)[C@H](CCC(=O)O)NC(=O)[C@@H]1CCCCNC(=O)CC[C@H](NC(=O)[C@H](CCC(=O)O)NC(=O)[C@H](CC(C)C)NC(=O)[C@H](Cc2ccc(O)cc2)NC(=O)[C@H](CO)NC(=O)[C@H](CO)NC(=O)[C@@H](NC(=O)[C@H](CC(=O)O)NC(=O)[C@H](CO)NC(=O)[C@@H](NC(=O)[C@H](Cc2ccccc2)NC(=O)[C@@H](NC(=O)CNC(=O)[C@H](CCC(=O)O)NC(=O)[C@H](C)NC(=O)[C@@H](N)Cc2cnc[nH]2)[C@@H](C)O)[C@@H](C)O)C(C)C)C(=O)N[C@@H](CCC(N)=O)C(=O)N[C@@H](C)C(=O)N[C@@H](C)C(=O)N1)C(=O)N[C@@H](C)C(=O)N[C@@H](Cc1c[nH]c2ccccc12)C(=O)N[C@@H](CC(C)C)C(=O)N[C@H](C(=O)N[C@@H](CCCCN)C(=O)NCC(=O)N[C@@H](CCCNC(=N)N)C(=O)O)C(C)C					160
CC[C@H](C)[C@H](NC(=O)[C@H](Cc1ccccc1)NC(=O)[C@H](CCC(=O)O)NC(=O)[C@@H]1CCCCNC(=O)CC[C@H](NC(=O)[C@H](CCC(=O)O)NC(=O)[C@@H]2CCCCNC(=O)CC[C@H](NC(=O)[C@H](CC(=O)O)NC(=O)[C@H](CO)NC(=O)[C@@H](NC(=O)[C@H](Cc3ccccc3)NC(=O)[C@@H](NC(=O)CNC(=O)[C@H](CCC(=O)O)NC(=O)[C@H](C)NC(=O)[C@@H](N)Cc3cnc[nH]3)[C@@H](C)O)[C@@H](C)O)C(=O)N[C@@H](CO)C(=O)N[C@@H](CO)C(=O)N[C@@H](Cc3ccc(O)cc3)C(=O)N2)C(=O)N[C@@H](CCC(N)=O)C(=O)N[C@@H](C)C(=O)N[C@@H](C)C(=O)N1)C(=O)N[C@H]1CCC(=O)NCCCC[C@@H](C(=O)NCC(=O)N[C@@H](CCCN=C(N)N)C(N)=O)NC(=O)[C@H](C(C)C)NC(=O)[C@H](CC(C)C)NC(=O)[C@H](Cc2c[nH]c3ccccc23)NC1=O (H-HAEGTFTSDESSYKEEQAAKEFIEWLVKGR-NH2; lactam 10-14, 16-20, 24-28)	> 96	1.8		> 24	
CC[C@H](C)[C@H](NC(=O)[C@H](Cc1ccccc1)NC(=O)[C@H](CCC(=O)O)NC(=O)[C@@H]1CCCCNC(=O)CC[C@H](NC(=O)[C@H](CCC(=O)O)NC(=O)[C@@H]2CCCCNC(=O)CC[C@H](NC(=O)[C@H](CC(=O)O)NC(=O)[C@H](CO)NC(=O)[C@@H](NC(=O)[C@H](Cc3ccccc3)NC(=O)[C@@H](NC(=O)CNC(=O)[C@H](CCC(=O)O)NC(=O)[C@H](C)NC(=O)[C@@H](N)Cc3cnc[nH]3)[C@@H](C)O)[C@@H](C)O)C(=O)N[C@@H](CO)C(=O)N[C@@H](CO)C(=O)N[C@@H](Cc3ccc(O)cc3)C(=O)N2)C(=O)N[C@@H](CCC(N)=O)C(=O)N[C@@H](C)C(=O)N[C@@H](C)C(=O)N1)C(=O)N[C@H]1CCC(=O)NCCCC[C@@H](C(=O)NCC(=O)N[C@@H](CCCNC(=N)N)C(N)=O)NC(=O)[C@H](C(C)C)NC(=O)[C@H](CC(C)C)NC(=O)[C@H](Cc2c[nH]c3ccccc23)NC1=O (H-HAEGTFTSDESSYKEEQAAKEFIEWLVKGR-NH2; lactam 10-14, 16-20, 24-28)					260
CC[C@H](C)[C@H](NC(=O)[C@H](Cc1ccccc1)NC(=O)[C@H](CCC(=O)O)NC(=O)[C@H](CCCCN)NC(=O)[C@H](C)NC(=O)[C@H](C)NC(=O)[C@H](CCC(N)=O)NC(=O)CNC(=O)[C@H](CC(C)C)NC(=O)[C@H](Cc1ccc(O)cc1)NC(=O)[C@H](CO)NC(=O)[C@H](CO)NC(=O)[C@@H](NC(=O)[C@H](CC(=O)O)NC(=O)[C@H](CO)NC(=O)[C@@H](NC(=O)[C@H](Cc1ccccc1)NC(=O)[C@@H](NC(=O)CNC(=O)[C@H](CCC(=O)O)NC(=O)[C@H](C)NC(=O)[C@@H](N)Cc1cnc[nH]1)[C@@H](C)O)[C@@H](C)O)C(C)C)C(=O)N[C@@H](C)C(=O)N[C@@H](Cc1c[nH]c2ccccc12)C(=O)N[C@@H](CC(C)C)C(=O)N[C@H](C(=O)N[C@@H](CCCCN)C(=O)NCC(=O)N[C@@H](CCCNC(=N)N)C(=O)O)C(C)C [GLP-1] (H-HAEGTFTSDVSSYLGQAAKEFIAWLVKGR-OH)	4.6			2	

More lines, now with the values ahead:

half-life [1] [h]	EC50 ([2]; read-out: EC50) [nM]	EC50 ([2]; read-out: pEC50 (converted)) [nM]	half-life [3] [h]	Activity [4] [%]	Structure (SMILES)
				240	CC[C@H](C)[C@H](NC(=O)[C@H](Cc1ccccc1)NC(=O)[C@H](CCC(=O)O)NC(=O)[C@H](CCCCN)NC(=O)[C@H](C)NC(=O)[C@H](C)NC(=O)[C@H](CCC(N)=O)NC(=O)[C@@H]1CCCCNC(=O)CC[C@H](NC(=O)[C@H](CO)NC(=O)[C@@H](NC(=O)[C@H](CC(=O)O)NC(=O)[C@H](CO)NC(=O)[C@@H](NC(=O)[C@H](Cc2ccccc2)NC(=O)[C@@H](NC(=O)CNC(=O)[C@H](CCC(=O)O)NC(=O)[C@H](C)NC(=O)[C@@H](N)Cc2cnc[nH]2)[C@@H](C)O)[C@@H](C)O)C(C)C)C(=O)N[C@@H](Cc2ccc(O)cc2)C(=O)N[C@@H](CC(C)C)C(=O)N[C@@H](CCC(=O)O)C(=O)N1)C(=O)N[C@H]1CCC(=O)NCCCC[C@@H](C(=O)NCC(=O)N[C@@H](CCCNC(=N)N)C(N)=O)NC(=O)[C@H](C(C)C)NC(=O)[C@H](CC(C)C)NC(=O)[C@H](Cc2c[nH]c3ccccc23)NC1=O
6.6	3.3		3.1		CC[C@H](C)[C@H](NC(=O)[C@H](Cc1ccccc1)NC(=O)[C@H](CCC(=O)O)NC(=O)[C@H](CCCCN)NC(=O)[C@H](C)NC(=O)[C@H](C)NC(=O)[C@H](CCC(N)=O)NC(=O)CNC(=O)[C@H](CCC(=O)O)NC(=O)[C@@H]1CCCCNC(=O)CC[C@H](NC(=O)[C@H](CC(=O)O)NC(=O)[C@H](CO)NC(=O)[C@@H](NC(=O)[C@H](Cc2ccccc2)NC(=O)[C@@H](NC(=O)CNC(=O)[C@H](CCC(=O)O)NC(=O)[C@H](C)NC(=O)[C@@H](N)Cc2cnc[nH]2)[C@@H](C)O)[C@@H](C)O)C(=O)N[C@@H](CO)C(=O)N[C@@H](CO)C(=O)N[C@@H](Cc2ccc(O)cc2)C(=O)N1)C(=O)N[C@H]1CCC(=O)NCCCC[C@@H](C(=O)NCC(=O)N[C@@H](CCCN=C(N)N)C(N)=O)NC(=O)[C@H](C(C)C)NC(=O)[C@H](CC(C)C)NC(=O)[C@H](Cc2c[nH]c3ccccc23)NC1=O (H-HAEGTFTSDESSYKEGQAAKEFIEWLVKGR-NH2; lactam 10-14, 24-28)
				140	CC[C@H](C)[C@H](NC(=O)[C@H](Cc1ccccc1)NC(=O)[C@H](CCC(=O)O)NC(=O)[C@H](CCCCN)NC(=O)[C@H](C)NC(=O)[C@H](C)NC(=O)[C@H](CCC(N)=O)NC(=O)CNC(=O)[C@H](CCC(=O)O)NC(=O)[C@@H]1CCCCNC(=O)CC[C@H](NC(=O)[C@H](CC(=O)O)NC(=O)[C@H](CO)NC(=O)[C@@H](NC(=O)[C@H](Cc2ccccc2)NC(=O)[C@@H](NC(=O)CNC(=O)[C@H](CCC(=O)O)NC(=O)[C@H](C)NC(=O)[C@@H](N)Cc2cnc[nH]2)[C@@H](C)O)[C@@H](C)O)C(=O)N[C@@H](CO)C(=O)N[C@@H](CO)C(=O)N[C@@H](Cc2ccc(O)cc2)C(=O)N1)C(=O)N[C@H]1CCC(=O)NCCCC[C@@H](C(=O)NCC(=O)N[C@@H](CCCNC(=N)N)C(N)=O)NC(=O)[C@H](C(C)C)NC(=O)[C@H](CC(C)C)NC(=O)[C@H](Cc2c[nH]c3ccccc23)NC1=O (H-HAEGTFTSDESSYKEGQAAKEFIEWLVKGR-NH2; lactam 10-14, 24-28)
